Patent US20250002452A1, “BICYCLOPENTANE DERIVATIVES” (ICAGEN, LLC, priority 2022, published 2025)

Biological target: human Kv7.2 (Homo sapiens (Human), UniProt O43526)
Assay: SyncroPatch 384 electrophysiology, activation of Kv7.2 in CHO cells
Type: cell-based
Conditions: Kv7.2 activation max %, relative to 30 μM ML-213 max activation
Method: The potency of Kv7 uotentiators was determined using the SyncroPatch 384 (Nanion) high throughput electrophysiology platform.
CHO cells stably expressing either human Kv7.2, Kv7.4 or Kv7.5/7.3 under a constitutive CMV promoter were used for these studies. Cells were maintained in F12 Hams+1 mM L-glutamine (Hyclone) supplemented with 10% FBS (Sigma), 0.3× NEAA (Non-essential Gamino-acids) and 400ug/ml G418 at 37° C. in 5% CO2. Cells were cultured in T-225 flasks (Nunc) for 2-3 days to reach 85-95% confluence prior to electrophysiological recording.
Earle's balanced salt solution (in mM): 135 NaCl, 5.4 KCl, 5 Glucose, 2 CaCl2), 1 MgCl2, 5 HEPES, pH 7.4. Seal enhancer solution (in mM): 90 NaCl, 3 KCl, 35 CaCl2), 10 MgCl2, 10 HEPES, pH 7.4. Extracellular recording solution (in mM): 71 NaCl, 70 NMDG, 13 KCl, 5 Glucose, 2 CaCl2), 1 MgCl2, 10 HEPES, pH 7.4. Intracellular recording solution (in mM): 130 KF, 20 KCl, 4 EGTA, 10 HEPES, 2 EDTA, 0.01 Escin, pH 7.2.
Cells were harvested for electrophysiological recording upon reaching appropriate confluence. Cells were first washed in DPBS (Hyclone, Cat #SH30028.03) and then 2 ml of Accutase (MP Biomedicals #1000449) was added at 28° C. until ˜90% of cells were suspended. F12 HAM's media+1 mM L-glutamine (Hyclone, SH30026.02) was then added to the flask to dilute the accutase. Cells were then triturated until a single cell suspension was achieved, a cell count was performed, and cells were centrifuged for 2 min. at 1,000 rpm. Media was then aspirated, and cells were resuspended in Earle's balanced salt solution to a concentration of 0.75×10^6 cells/ml and allowed to recover for 25 min at 10° C.
At the beginning of each assay, 20 μl of cell suspension was dispensed into each well of a multi-hole 384-well SyncroPatch chip by the onboard pipettor. Cell sealing was initiated, and seal enhancer solution was added to facilitate seal formation. Upon completion of sealing, cells were washed 3 times with extracellular recording solution and the assay voltage protocol was started. Human Kv7.2, Kv7.4 or Kv7.5/7.3 channels were evaluated using a voltage protocol in which cells were voltage-clamped at a holding potential of −60 mV. Potassium currents were continuously activated with a series of three voltage steps to −30 mV for 3 seconds, 40 mV for 1 second and −90 mV for 4 seconds with 12 seconds between successive voltage sweeps. Potassium currents were measured from the −90 mV repolarizing step. Baseline current was assessed for 3.5 minutes prior to the addition of 5.6 μM zinc pyrithione (1μM for Kv7.4). Kv7.2, Kv7.4 or Kv7.5/7.3 current in the presence of zinc pyrithione was acquired over five minutes to allow channels to reach steady state activity prior to addition of test agents. Channel activity was monitored for three minutes preceding the addition of 30 μM ML-213 (3 minutes) to achieve maximum activation. 150 mM TEA with 10 μM XE-991 was applied for 2 minutes to measure the leak current during maximum inhibition of Kv7.2, Kv7.4 or Kv7.5/7.3 channels.
Example 61 Data Analysis Data were collected on the SyncroPatch platform using PatchControl software (Nanion) and processed and analyzed using DataControl Software (Nanion). Percent activation was calculated from potassium current as follows: The average current for the 5 sweeps in the presence of zinc pyrithione immediately preceding test agent addition was taken as the ‘control’ data. Likewise, the average potassium current in the presence of test agents 5 sweeps immediately preceding addition of 30 μM ML-213 was determined for ‘drug’ data. The average potassium current 5 sweeps immediately prior to addition of 150 mM TEA+10 μM XE-991 was determined for ‘max activation’ data while average currents from 5 sweeps immediately following addition of TEA was determined for ‘max inhibition’ data. […]

Row | Structure (SMILES) | Kv7.2 max
1 | O=C(NCc1ccc2c(c1)OC(F)(F)O2)NC12CC(C(F)(F)F)(C1)C2 [Example 33, 1-[(2,2-difluoro-1,3-benzodioxol-5-yl)methyl]-3-[3-(trifluoromethyl)-1-bicyclo[1.1.1]pentanyl]urea] | 58%
2 | O=C(NCc1cccc(OCF)c1)NC12CC(C(F)(F)F)(C1)C2 [Example 34, 1-[[3-(fluoromethoxy)phenyl]methyl]-3-[3-(trifluoromethyl)-1-bicyclo[1.1.1]pentanyl]urea] | 56%
3 | [2H]C([2H])(NC(=O)NC12CC(C(F)(F)F)(C1)C2)c1cccc(OC(F)(F)F)c1 [Example 35, 1-[dideuterio-[3-(trifluoromethoxy)phenyl]methyl]-3-[3-(trifluoromethyl)-1-bicyclo[1.1.1]pentanyl]urea] | 63%
4 | O=C(NCc1cccc(Br)c1)NC12CC(C(F)(F)F)(C1)C2 [Example 36, 1-[(3-bromophenyl)methyl]-3-[3-(trifluoromethyl)-1-bicyclo[1.1.1]pentanyl]urea] | 55%
5 | CC(NC(=O)NC12CC(C1)C2)c1cccc(OC(F)(F)F)c1 (centres unmarked) [Example 37, 1-(1-bicyclo[1.1.1]pentanyl)-3-[1-[3-(trifluoromethoxy)phenyl]ethyl]urea] | 44%
6 | CC(NC(=O)NC12CC(F)(C1)C2)c1cccc(OC(F)F)c1 (centres unmarked) [Example 38, 1-[1-[3-(difluoromethoxy)phenyl]ethyl]-3-(3-fluoro-1-bicyclo[1.1.1]pentanyl)urea] | 40%
7 | O=C(NCc1cccc(S(F)(F)(F)(F)F)c1)NC12CC(C1)C2 [Example 39, 1-(1-bicyclo[1.1.1]pentanyl)-3-[[3-(pentafluoro-λ6-sulfanyl)phenyl]methyl]urea] | 75%
8 | O=C(NCc1cccc(Br)c1)NC12CC(C1)C2 [Example 40, 1-(1-bicyclo[1.1.1]pentanyl)-3-[(3-bromophenyl)methyl]urea] | 58%
9 | O=C(NCc1cccc(Cl)c1)NC12CC(C1)C2 [Example 41, 1-(1-bicyclo[1.1.1]pentanyl)-3-[(3-chlorophenyl)methyl]urea] | 49%
10 | CC(C)(C)c1cccc(CNC(=O)NC23CC(C2)C3)c1 [Example 42, 1-(1-bicyclo[1.1.1]pentanyl)-3-[(3-tert-butylphenyl)methyl]urea] | 110%
11 | O=C(NCc1cccc(OC(F)F)c1)NC12CC(C1)C2 [Example 43, 1-(1-bicyclo[1.1.1]pentanyl)-3-[[3-(difluoromethoxy)phenyl]methyl]urea] | 78%
12 | O=C(N[C@H](CO)c1cccc(Br)c1)NC12CC(C(F)(F)F)(C1)C2 [Example 44, 1-[(1S)-1-(3-bromophenyl)-2-hydroxyethyl]-3-[3-(trifluoromethyl)-1-bicyclo[1.1.1]pentanyl]urea] | 40%
13 | O=C(NCc1cccc(C=C(F)F)c1)NC12CC(F)(C1)C2 [Example 45, 1-[[3-(2,2-difluoroethenyl)phenyl]methyl]-3-(3-fluoro-1-bicyclo[1.1.1]pentanyl)urea] | 71%
14 | CC12CC(NC(=O)NCc3cccc(OC(F)(F)F)c3)(C1)C2 [Example 46, 1-(3-methyl-1-bicyclo[1.1.1]pentanyl)-3-[[3-(trifluoromethoxy)phenyl]methyl]urea] | 86%
15 | N#Cc1cccc(CNC(=O)NC23CC(C(F)(F)F)(C2)C3)c1F [Example 47, 1-[(3-cyano-2-fluorophenyl)methyl]-3-[3-(trifluoromethyl)-1-bicyclo[1.1.1]pentanyl]urea] | 40%
16 | O=C(N[C@@H](CO)c1cccc(C(F)(F)F)c1)NC12CC(C(F)(F)F)(C1)C2 [Example 48, 1-[(1R)-2-hydroxy-1-[3-(trifluoromethyl)phenyl]ethyl]-3-[3-(trifluoromethyl)-1-bicyclo[1.1.1]pentanyl]urea] | 78%
17 | N#CCOc1cccc(CNC(=O)NC23CC(C(F)(F)F)(C2)C3)c1 [Example 49, 1-[[3-(cyanomethoxy)phenyl]methyl]-3-[3-(trifluoromethyl)-1-bicyclo[1.1.1]pentanyl]urea] | 53%
18 | O=C(NCc1cccc(SC(F)(F)F)c1)NC12CC(F)(C1)C2 [Example 50, 1-(3-fluoro-1-bicyclo[1.1.1]pentanyl)-3-[[3-(trifluoromethylsulfanyl)phenyl]methyl]urea] | 72%
19 | C[C@H](NC(=O)NC12CC(C1)C2)c1cccc(C(F)(F)F)c1 [Example 51, 1-(1-bicyclo[1.1.1]pentanyl)-3-[(1S)-1-[3-(trifluoromethyl)phenyl]ethyl]urea] | 52%
20 | [2H]C([2H])(NC(=O)NC12CC(C(F)(F)F)(C1)C2)c1cccc(C#N)c1 [Example 52, 1-[(3-cyanophenyl)-dideuteriomethyl]-3-[3-(trifluoromethyl)-1-bicyclo[1.1.1]pentanyl]urea] | 42%
21 | O=C(NC12CC(C1)C2)NC1(c2cccc(C(F)(F)F)c2)CC1 [Example 53, 1-(1-bicyclo[1.1.1]pentanyl)-3-[1-[3-(trifluoromethyl)phenyl]cyclopropyl]urea] | 82%
22 | O=C(N[C@@H](CO)c1cccc(C(F)(F)F)c1)NC12CC(C1)C2 [Example 54, 1-(1-bicyclo[1.1.1]pentanyl)-3-[(1R)-2-hydroxy-1-[3-(trifluoromethyl)phenyl]ethyl]urea] | 78%
23 | O=C(N[C@@H](CO)c1cccc(OC(F)(F)F)c1)NC12CC(C(F)(F)F)(C1)C2 [Example 55, 1-[(1R)-2-hydroxy-1-[3-(trifluoromethoxy)phenyl]ethyl]-3-[3-(trifluoromethyl)-1-bicyclo[1.1.1]pentanyl]urea] | 77%
24 | O=C(NCc1ccc(F)c(OC(F)F)c1)NC12CC(C(F)(F)F)(C1)C2 [Example 56, 1-[[3-(difluoromethoxy)-4-fluorophenyl]methyl]-3-[3-(trifluoromethyl)-1-bicyclo[1.1.1]pentanyl]urea] | 44%
25 | O=C(NCc1cccc(OC(F)(F)F)c1F)NC12CC(C(F)(F)F)(C1)C2 [Example 57, 1-[[3-(trifluoromethoxy)-2-fluorophenyl]methyl]-3-[3-(trifluoromethyl)-1-bicyclo[1.1.1]pentanyl]urea] | 45%
26 | O=C(NCc1cccc(OCC(F)(F)F)c1)NC12CC(C(F)(F)F)(C1)C2 [Example 58, 1-[[3-(2,2,2-trifluoroethoxy)phenyl]methyl]-3-[3-(trifluoromethyl)-1-bicyclo[1.1.1]pentanyl]urea] | 67%
